From paper PMC8067721 (Pharmaceutics, 2021)

Assays:
[1] = test system: NT receptors (NTRS1, NTRS2, NTRS3) on HT-29 cells; assay: In vitro specific binding / competition assay with all NT receptors blocked; design: species or system human; details: antagonists applied together: 70 nM NTRC 824, 30 nM SR 48692, 10 nM SR 142948, […]; uptake profile almost linear
Protocol: In order to evaluate the specific binding due to the exclusive interaction of the peptide with its receptors, a competition assay was performed. This assay in which all NT receptors are blocked before incubating the labelled peptide is intended to highlight non-specific binding of NT to the cells. […] For this assessment, three different NT receptors antagonists were used, each having a preferential increased affinity for one of the receptors, allowing the blocking of all NTRs at the same time:
Afterwards, the medium containing unbound antagonists was removed and the cells were washed with 2 mL of fresh DMEM medium.

[2] = test system: HT-29 cells; design: method as in PMID 9023294; details: cited from earlier work
[3] = test system: NTRS2; design: method as in PMID 25157640; details: cited from earlier work

Row | Compound | effect of antagonists on ^68Ga-DOTA-NT binding to colon HT-29 tumour cells [1] | inhibition of [^125I]ITyr^3-NT specific binding to HT-29 cells [2] | selectivity for NTRS2 over NTRS1 [3] [fold]
1 | 2-[[5-(2,6-dimethoxyphenyl)-1-(4-(N-(3-dimethylaminopropyl)-N-methylcabamoyl)-2-isopropylphenyl)-1H-pyrazole-3-carbonyl]amino]adamantane-2-carboxylic acid [SR 142948] | inhibit | completely inhibits | 
2 | Cc1ccc(S(=O)(=O)Nc2ccc3c(c2)c(C(=O)C(F)(F)F)cn3CC(=O)N[C@@H](CC(C)C)C(=O)O)cc1 [NTRC 824, N-[2-[5-[[(4-Methylphenyl)sulfonyl]amino]-3-(trifluoroacetyl)-1H-indol-1-yl]acetyl]-L-leucine] | inhibit |  | 150
3 | COc1cccc(OC)c1-c1cc(C(=O)NC2(C(=O)O)C3CC4CC(C3)CC2C4)nn1-c1ccnc2cc(Cl)ccc12 (centres unmarked) [SR 48692, 2-[[1-(7-chloroquinolin-4-yl)-5-(2,6-dimethoxyphenyl)-1H-pyrazol-3-carbonyl]amino] adamantane-2-carboxylic acid] | inhibit |  | 
